Holding throughout (test): NCI anticancer screen, dose series, 48 h
Assay [1] concerns PC-3 prostate.
The test system of assay [2] is DU-145 prostate.
The test system of assay [3] is MDA-MB-435.
For assay [4], the system named is MDA-MB-231 breast.
Assay [5] relates to HS 578T breast.
In assay [6] the test system is DLD-1 colon.
For assay [7], the system named is LXFL 529 NSCLC.
In assay [8] the test system is M19-MEL melanoma.
The test system of assay [9] is DMS 273 small cell lung.

“And” between values parts separate entries of the source, which are not always exact repeats. Identical values can stand only once.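 Where inhibition never reached the appropriate level, the endpoint shown equals the highest concentration tested. Otherwise, values were interpolated linearly from a five-concentration, 48-hour dose response in 96-well plates. At the GI50, growth is halved. TGI denotes the concentration required for complete inhibition of growth.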

Take `CC(CCC(=O)O)C(=O)O` (stereo not drawn): the TGI in [1], in assay [2], in assay [3], in assay [4] and in assay [5] was more than 100 µM throughout.
Turning to `CCCOc1ccc2nc(NC(=O)OC)[nH]c2c1`, the GI50 is 269 nM in assay [1]; 466 nM in assay [2]; 28.4 nM in assay [3]; 399 nM in [4]; 342 nM in [5]. The TGI in assay [1] was more than 100 µM; in assay [3], 0.11 µM; in assay [4], more than 100 µM; in [5] it was more than 100 µM.
On to `CCOC(=O)c1cc(/C=C/C(C)=C/C(=O)OC)oc1C`, for which the TGI in assay [6] was more than 100 µM; in [7] it was more than 100 µM; in assay [8], more than 100000 nM.
For `CN(C)CC1CCC/C1=N\O` (stereo not drawn), the TGI in [9] was more than 100 µM; in assay [6], more than 100 µM; in assay [7] it was more than 100 µM; in [8], more than 100000 nM.
As to `O=C(O)c1ccc2c(c1)CCCC(c1ccc(Cl)cc1Cl)=C2c1ccc(O[C@H]2CCN(CCCF)C2)cc1`, the GI50 in assay [1] is 10400 nM; in assay [2], 14200 nM; in [3] it was 10500 nM; in assay [4], 16400 nM; in [5], 12900 nM. The TGI is 24.2 µM in assay [1]; 27.5 µM in [2]; 24.3 µM in assay [3]; 31.6 µM in [4]; 31.8 µM in assay [5].
For `O=C1NC(=S)S/C1=C(/C=C(\CC(=O)c1ccccc1)c1ccc(Cl)cc1)c1ccccc1`, the GI50 in assay [1] was 25800 nM; in [2], 43100 nM; in [3], 37200 nM; in assay [4], 25000 nM; in [5] it was 42300 nM. The TGI was 83.3 µM in [1]; more than 100 µM in [2]; more than 100 µM in assay [3]; 72.6 µM in assay [4]; 85.4 µM in [5].
Regarding `COc1cc2ncnc(Nc3ccc(F)c(Cl)c3)c2cc1NC(=O)/C=C/CN1CCCCC1`, the GI50 in assay [1] is 2530 nM and 2780 nM; in [2], 365 nM and 401 nM; in assay [3], 1600 nM and 1460 nM; in [4] it was 1300 nM and 1530 nM; in [5] it was 2010 nM and 921 nM. Also, the TGI in assay [1] is 10.5 µM and > 10 µM; in assay [2], 11.4 µM and > 10 µM; in assay [3] it was 3.42 µM and 2.95 µM; in [4], 3.2 µM and 4 µM; in assay [5] it was 19.6 µM and 5.6 µM.
On to `OCCNc1ncnc2c1ncn2Cc1cccc(COc2cccc(OCc3cccc(Cn4cnc5c(NCCO)ncnc54)c3)c2)c1`, for which the GI50 in assay [1] is 14500 nM; in assay [2], 16700 nM; in [3], 14900 nM; in [4], 14500 nM; in assay [5], 11800 nM. The TGI was 30.4 µM in assay [1]; 32.5 µM in assay [2]; 35.7 µM in assay [3]; 29.3 µM in assay [4]; 28.7 µM in [5].
On to `COc1ccc(C2=NN(C=O)C(c3cccc(Nc4ccnc5cc(Cl)ccc45)c3)C2)cc1` (stereo not drawn), for which the GI50 in assay [1] was 2870 nM; in [2], 3620 nM; in assay [3] it was 370 nM; in [4] it was 4000 nM; in assay [5], 3920 nM. The TGI in assay [1] is more than 100 µM; in assay [2], 89.3 µM; in assay [3] it was 13.1 µM; in assay [4], 97 µM; in assay [5], 39.4 µM.
With `CC[PH+](CC)CC.O=COC1OC([S-])C(OC=O)C(OC=O)C1OC=O.[Au+]` (stereo not drawn), the GI50 was 1660 nM in assay [1]; 1580 nM in assay [2]; 1430 nM in assay [3]; 1460 nM in assay [4]; 775 nM in assay [5]. Further, the TGI in assay [1] came to 3.54 µM; in assay [2], 3.33 µM; in [3], 2.97 µM; in [4], 2.82 µM; in assay [5], 4.76 µM.
On to `CC(C)c1cccc(C(C)C)c1NC(=O)/C(CC(=O)CC(c1ccccc1)c1c(O)c2ccccc2oc1=O)=N/O` (stereo not drawn), for which the TGI in assay [1], in assay [2], in assay [3], in assay [4] and in assay [5] was more than 100 µM each time.
On to `Nc1ccc(C(=O)CC(N)C(=O)O)cc1O` (stereo not drawn), for which the TGI in assay [1], in assay [2], in assay [3], in assay [4] and in assay [5] was more than 100 µM throughout.
Regarding `NC(=O)c1cc2c3ccccc3ccn2c1-c1ccccc1`, the GI50 was 37.1 nM in assay [1], 71.9 nM in [2], 662 nM in assay [4] and 63.2 nM in assay [5]. In addition, the TGI in assay [1] is 12.6 µM; in [2], 2.54 µM; in assay [3], more than 100 µM; in assay [4], 17.5 µM; in [5], 62.6 µM.
For the molecule `C/C=C1\NC(=O)[C@H]2CSSCCC=C[C@H](CC(=O)N[C@H](C(C)C)C(=O)N2)OC(=O)[C@H](C(C)C)NC1=O`, the TGI in assay [9] is 0.0102 µM; in assay [2] it was 0.226 µM and 0.0645 µM and 0.199 µM; in assay [6], 0.289 µM; in assay [3], < 0.0134 µM and 0.0207 µM and 0.125 µM; in assay [5], 0.0439 µM; in [8] it was 56.4 nM and 65 nM. In addition, the GI50 in [1] was less than 10 nM; in [2], less than 10 nM; in assay [6] it was 10.2 nM; in assay [3] it was less than 10 nM; in assay [4], less than 10 nM; in assay [5], less than 10 nM.
In the case of `N.N.N.N.O=C([O-])C(Cl)Cl.O=C([O-])C(Cl)Cl.[Co+3].[O-][Cl+3]([O-])([O-])[O-]`, the GI50 in [9] was more than 100 µM; in assay [6] it was more than 100000 nM; in assay [7], more than 100 µM. The TGI in assay [9], in assay [6] and in assay [7] was more than 100 µM in each case.

For the origin of these results see PubChem BioAssay (NCI).
